Converted amounts (≈) assume the structure as drawn. Read-outs that look alike come from different tables or passages of the source.
Columns and labels:
[1] = system: M. gallisepticum strain S6; assay: Static time-kill curves and Sigmoid Emax fit of kill rate; format: cell-based, Mycoplasma gallisepticum; settings: for EC50: Mycoplasmoides gallisepticum, read-out: EC50 (concentration at half-maximal kill rate); for decrease of mycoplasma counts / type of effect: static; for decrease of mycoplasma counts: within 48 h
Description: Based on the MIC value from broth microdilution method, 7 mL blank medium, 0.2 mL amphenmulin solution, and 0.8 mL M. gallisepticum suspension were taken into 10-mL Celine bottles to make the final mycoplasma count of 10^7 CFU/mL, as well as final concentrations of amphenmulin of 1, 2, 4, 6, 8, 16, 32, and 64 MIC, respectively. Growth control (without drug) and negative control (blank medium) were also set up for culture. Then at 0, 6, 9, 12, 24, 36, and 48 h, 100 µL of each culture was taken for counting using the aforementioned method, with a lower limit of 100 CFU/mL. The experiment was repeated three times.
The efficacy of amphenmulin against M. gallisepticum was measured by the kill rate per unit of time. Considering the growth of M. gallisepticum observed in preliminary experiments, this study selected seven time periods of 0–24, 0–36, 0–48, 6–24, 6–36, 6–48, and 12–48 h to calculate the kill rates of amphenmulin. The Sigmoid Emax model in Phoenix was used to fit the relationship between mean kill rate and drug concentration, which is shown below:
E, kill rate of amphenmulin against M. gallisepticum within a period; E0, change rate of M. gallisepticum in the control group (without drug); Emax, maximum kill rate within a period; Ce, concentration of amphenmulin; EC50, drug concentration at half-maximal kill rate; N, Hill coefficient, reflecting the slope of the kill rate–concentration curve.

[2] = set-up: method as in PMID 29722184, PMID 32079232; settings: cited from earlier work
[3] = system: M. gallisepticum S6 strain; assay: Susceptibility assay, broth microdilution (MIC, MBC); format: cell-based, Mycoplasma gallisepticum
Description: (§1) The minimum inhibitory concentration (MIC) of amphenmulin against M. gallisepticum S6 strain was determined with reference to the protocols previously reported ([16], [17]). The broth microdilution method was performed using 96-well plates to achieve a final titer of approximately 10^7 colony-forming units (CFU)/mL of M. gallisepticum in each well. The final concentrations tested of amphenmulin ranged from 0.488 × 10^−3 to 0.125 µg/mL. Concurrently, a growth control (without drug), an end-point control (blank medium), and a sterile control (sterile broth) were also implemented. […] For the agar dilution method, M. gallisepticum was inoculated and cultured on agar plates containing a twofold dilution series of amphenmulin concentrations, and the MIC was the lowest drug concentration that inhibited growth. Additionally, following the procedure of broth microdilution, the initial culture before incubation and the samples from wells where the color remained unchanged after 48 h of incubation were subjected to 10-fold serial dilutions. Each dilution sample (10 µL) was then plated on drug-free agar for colony counting.

[4] = set-up: method as in PMID 32079232; settings: mice; cited from earlier work
[5] = system: M. gallisepticum S6 strain; assay: Susceptibility assay, agar dilution (MIC, MIC99, MPC); format: cell-based, Mycoplasma gallisepticum; set-up: MPC: unit not given here
Description: as §1
We also determined the minimum concentration inhibiting colony formation by 99% (MIC99) of amphenmulin against the S6 strain by slightly modifying the existing methods ([18], [19]). […] By counting the colony growth of M. gallisepticum inoculated on these drug-containing agar plates and performing linear regression with drug concentration, we calculated the amphenmulin concentration that inhibits 99% growth of the S6 strain.
Furthermore, we determined the mutant prevention concentration (MPC) of amphenmulin against the S6 strain by agar dilution method ([20]). Briefly, M. gallisepticum at exponential phase was enriched to ≥10^9 CFU/mL by centrifugation and cultured as described above. The lowest drug concentration that inhibited mycoplasma growth in the agar plate was determined as the primary MPC (MPCpr), and the determination was repeated after linearly reducing the MPCpr to 0.5 MPCpr at 10% drug concentration. The final mycoplasma-free growth concentration was the MPC. All the experiments of the above pharmacodynamic studies were conducted in triplicate.

[6] = Mycoplasmoides gallisepticum, S6STRAIN

**Q.** With C=C[C@]1(C)C[C@@H](OC(=O)CSc2ccccc2N)[C@]2(C)[C@H](C)CC[C@]3(CCC(=O)[C@H]32)[C@@H](C)[C@@H]1O [amphenmulin, 22-(2-amino-phenylsulfanyl)-22-deoxypleuromutilin] as the molecule, how does the EC50 ([1]; S6, period 0–24 h) read?
**A.** 0.0325 µg/mL (≈ 0.0669 µM)

**Q.** What about the EC50 ([1]; S6, period 0–36 h) of the same molecule?
**A.** 0.0914 µg/mL (≈ 0.188 µM)

**Q.** And the EC50 ([1]; S6, period 0–48 h)?
**A.** 0.913 µg/mL (≈ 1.88 µM)

**Q.** What about the EC50 ([1]; S6, period 6–24 h) of the same molecule?
**A.** 0.0082 µg/mL (≈ 0.0169 µM)

**Q.** And the EC50 ([1]; S6, period 6–36 h)?
**A.** 0.0053 µg/mL (≈ 0.0109 µM)

**Q.** And the EC50 ([1]; S6, period 6–48 h)?
**A.** 0.0526 µg/mL (≈ 0.108 µM)

**Q.** And the EC50 ([1]; S6, period 12–48 h)?
**A.** 0.524 µg/mL (≈ 1.08 µM)

**Q.** What about the “Emax (maximum kill rate)” value ([1]; period 0–24 h) of the same molecule?
**A.** 0.1261 h⁻¹

**Q.** And the “Emax (maximum kill rate)” value ([1]; period 0–36 h)?
**A.** 0.1817 h⁻¹

**Q.** What about the “Emax (maximum kill rate)” value ([1]; period 0–48 h) of the same molecule?
**A.** 0.3277 h⁻¹

**Q.** And the “Emax (maximum kill rate)” value ([1]; period 6–24 h)?
**A.** 0.0805 h⁻¹

**Q.** What about the “Emax (maximum kill rate)” value ([1]; period 6–36 h) of the same molecule?
**A.** 0.0821 h⁻¹

**Q.** What about the “Emax (maximum kill rate)” value ([1]; period 6–48 h) of the same molecule?
**A.** 0.1743 h⁻¹

**Q.** What about the “Emax (maximum kill rate)” value ([1]; period 12–48 h) of the same molecule?
**A.** 0.2880 h⁻¹

**Q.** And the “decrease of mycoplasma counts” value ([1]; 1 MIC)?
**A.** 0.44 Log10CFU/mL

**Q.** And the type of effect ([1]; 2–32 MIC)?
**A.** bacteriostatic effect

**Q.** What about the “decrease of mycoplasma counts” value ([1]; 2–32 MIC) of the same molecule?
**A.** 0.57–2.7 Log10CFU/mL

**Q.** And the type of effect ([1]; 64 MIC)?
**A.** bactericidal effect

**Q.** What about the “decrease of mycoplasma counts” value ([1]; 64 MIC) of the same molecule?
**A.** 3.85 Log10CFU/mL

**Q.** And the acute toxicity [2]?
**A.** practically non-toxic

**Q.** What about the MIC ([3]; Mycoplasmoides gallisepticum, S6STRAIN, broth microdilution, inoculum 10^7 CFU/mL, strain S6) of the same molecule?
**A.** 0.0039 µg/mL (≈ 0.00803 µM)

**Q.** And the MBC ([3]; Mycoplasmoides gallisepticum, S6STRAIN, inoculum 10^7 CFU/mL, reduction > 3 Log10CFU/mL after 48 h)?
**A.** 0.0156 µg/mL (≈ 0.0321 µM)

**Q.** And the “MIC at inoculum levels of 107, 106, and 105” value ([3]; early pre-experiments (response to reviewer))?
**A.** no significant difference

**Q.** And the oral bioavailability [4]?
**A.** 13.65%

**Q.** What about the “MPC relative to MIC99” value [5] of the same molecule?
**A.** about 6.5 times

**Q.** And the MIC [5, 6]?
**A.** 0.0078 µg/mL (≈ 0.0161 µM)

**Q.** And the MIC99 [5, 6]?
**A.** 0.0077 µg/mL (≈ 0.0159 µM)

**Q.** And the MPC ([5]; agar dilution, inoculum 10^9 CFU/mL)?
**A.** 0.0500

**Q.** And the “mutation selection window (MSW)” value ([5]; between MIC99 and MPC)?
**A.** 0.77 × 10^−2–0.05 µg/mL

— publication PMC10846240, “Pharmacokinetic/pharmacodynamic integration of amphenmulin: a novel pleuromutilin derivative against Mycoplasma gallisepticum” (Microbiology Spectrum, 2023)
